These results are taken from ChEMBL document CHEMBL1201862, “PubChem BioAssay data set” (2004).

Test systems include DLD-1; DMS-114; DMS-273; KM-20L2; M19-MEL; SNB-78; HOP-18; RXF 631; XF498.
Holding throughout (experiment): NCI anticancer screen, dose series, 48 h

Molecules are shown by their SMILES.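 Exposure lasted 48 hours, with cells grown in 96-well plates and compounds tested at five concentrations. At the GI50, growth is halved.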 Activity calls are given as the source filed them. No stated cut-off is given here; in the data, active = GI50 up to about 1.1 µM and inactive = higher.

Regarding `Nc1ccccc1SC(/C=C/NNC1=NN=C(c2ccccc2)C(c2ccccc2)N1)c1ccccc1` (configuration not stated), the GI50 is 12.9 µM (inactive) in the experiment on DLD-1; 13.6 µM (inactive) in the experiment with DMS-114; 16.9 µM (inactive) with DMS-273; 21 µM (inactive) with KM-20L2; 11.4 µM (inactive) in the experiment on M19-MEL; 18 µM (inactive) in the experiment with SNB-78.

With `O=C1N(c2ccccc2)C2(O)C(=O)c3ccccc3C2(O)N1c1ccccc1` (configuration not stated), the GI50 with DLD-1, with DMS-114, with DMS-273, in the experiment with HOP-18, with KM-20L2 and in the experiment on M19-MEL was > 100 µM (inactive) each time. In the experiment with SNB-78, the GI50 was > 100 µM (inactive).

As for `CCn1cc(C(=O)O)c(=O)c2cc(F)c(N3CCNCC3)nc21` [ENOXACIN], the GI50 is > 100 µM (inactive) with DLD-1; > 100 µM (inactive) with DMS-114; > 100 µM (inactive) in the experiment on DMS-273; > 100 µM (inactive) in the experiment on HOP-18; 87.9 µM (inactive) with M19-MEL; > 100 µM (inactive) in the experiment with RXF 631. In addition, the GI50 in the experiment on SNB-78 is > 100 µM (inactive).

In the case of `O=C1c2ccccc2S[C@@H](O)[C@@H]2CCCN12`, the GI50 in the experiment on DLD-1, in the experiment with DMS-114, in the experiment on DMS-273, in the experiment with HOP-18, in the experiment on KM-20L2 and in the experiment with M19-MEL was > 100 µM (inactive) each time. Moreover, the GI50 was > 100 µM (inactive) in the experiment with SNB-78 and 39.6 µM (inactive) in the experiment with XF498.

Consider `COC(=O)NN=C1C(C)(C)C(=NNC(=O)OC)C1(C)C`, for which the GI50 in the experiment on DLD-1 is > 61.9 µM (inactive); in the experiment with DMS-114, > 41.6 µM (inactive); in the experiment on DMS-273, > 100 µM (inactive); with HOP-18 it was > 100 µM (inactive); with KM-20L2, > 100 µM (inactive); in the experiment on M19-MEL, > 40.6 µM (inactive). For the same molecule, the GI50 with RXF 631 was > 100 µM (inactive); with SNB-78 it was > 100 µM (inactive); in the experiment with XF498 it was > 96.6 µM (inactive).

As for `Cc1cc(C)cc(-n2c3nc(=O)n(C)c(=O)c-3nc3ccccc32)c1`, the GI50 in the experiment with DMS-114 was 13.4 µM (inactive); with DMS-273, 16.7 µM (inactive); in the experiment with HOP-18, > 100 µM (inactive); in the experiment on KM-20L2 it was 19.4 µM (inactive); in the experiment with M19-MEL, 6.07 µM (inactive); with RXF 631, 22.5 µM (inactive). Further, the GI50 is 35.6 µM (inactive) in the experiment on SNB-78 and 36.3 µM (inactive) with XF498.

Consider `Cc1ccc(C2=[N+]([O-])c3ccccc3C2=O)cc1`, for which the GI50 with DLD-1 is 21.9 µM (inactive); with DMS-114 it was 14.5 µM (inactive); with HOP-18 it was 27.4 µM (inactive); in the experiment with KM-20L2, 40.4 µM (inactive); in the experiment with M19-MEL, > 36.1 µM (inactive); with RXF 631 it was 22.2 µM (inactive). Besides, the GI50 is 31.7 µM (inactive) in the experiment with SNB-78 and 12.9 µM (inactive) in the experiment with XF498.

On to `COc1cc2c(c(OC(C)=O)c1OC(C)=O)-c1ccc(SC)c(=O)cc1C(NC(C)=O)CC2` (configuration not stated), for which the GI50 in the experiment with DLD-1 was 3.91 µM (inactive); with DMS-114, 0.618 µM (active); in the experiment with DMS-273, 1.41 µM (inactive); in the experiment with HOP-18, > 91 µM (inactive); in the experiment on KM-20L2, 1.85 µM (inactive); in the experiment on M19-MEL, 1.39 µM (inactive). Moreover, the results for the GI50 in the experiment with SNB-78 and in the experiment on XF498 were 0.48 µM (active) and 2.75 µM (inactive), respectively.

`COC(=O)C1=CNC(C(=O)OC)=NN1`: the GI50 in the experiment on DLD-1, with DMS-114, with HOP-18, with KM-20L2, in the experiment with M19-MEL and in the experiment on RXF 631 was > 100 µM (inactive) throughout. In addition, in the experiment on XF498, the GI50 is > 100 µM (inactive).

Consider `CC(=O)CC(=O)Nc1ccccc1C(F)(F)F`, for which the GI50 with DLD-1, in the experiment with DMS-114, in the experiment on KM-20L2, in the experiment with M19-MEL, in the experiment on RXF 631 and in the experiment on SNB-78 was > 100 µM (inactive) each time. Moreover, in the experiment with XF498, the GI50 was > 100 µM (inactive).

In the case of `CC(C)C(Sc1nc(-c2ccccc2)c(-c2ccccc2)[nH]1)C(=O)NNC(=S)Nc1ccccc1` (configuration not stated), the GI50 was 25.8 µM (inactive) with DLD-1; 17.7 µM (inactive) with DMS-273; 18.4 µM (inactive) with KM-20L2; 18.9 µM (inactive) in the experiment on M19-MEL; 25 µM (inactive) with SNB-78; 18.4 µM (inactive) in the experiment with XF498.

For the molecule `CCN(CC)C(=O)c1c(N2CCOCC2)cc(N(CC)CC)oc1=O`, the GI50 in the experiment with DLD-1, with DMS-114, in the experiment with DMS-273, in the experiment with HOP-18, in the experiment with KM-20L2 and with M19-MEL was > 100 µM (inactive) throughout. In addition, the GI50 in the experiment with SNB-78 and in the experiment on XF498 was > 100 µM (inactive) throughout.

As for `Clc1ccc(C[P+]2(c3ccccc3)CCCCC2)cc1.[O-][Cl+3]([O-])([O-])[O-]`, the GI50 in the experiment on DLD-1 is > 100 µM (inactive); with DMS-114 it was 50.4 µM (inactive); with DMS-273 it was 57.5 µM (inactive); with HOP-18 it was > 100 µM (inactive); in the experiment with KM-20L2, 54.6 µM (inactive); with M19-MEL, 28.7 µM (inactive). Further, the GI50 with SNB-78 was 52.4 µM (inactive); with XF498 it was 44 µM (inactive).

Take `CC1=C(C(=O)Nc2cc(=O)n(C)c(=O)n2C)C(c2ccc([N+](=O)[O-])cc2)C(C(=O)Nc2cc(=O)n(C)c(=O)n2C)=C(C)N1`: the GI50 is 90.8 µM (inactive) with DLD-1; 73.5 µM (inactive) with DMS-114; 51.5 µM (inactive) in the experiment with HOP-18; > 100 µM (inactive) in the experiment with KM-20L2; > 100 µM (inactive) in the experiment with M19-MEL; > 100 µM (inactive) in the experiment on RXF 631. Further, the values for the GI50 with SNB-78 and with XF498 were > 100 µM (inactive) and 8.97 µM (inactive), respectively.

On to `CCC1CC2C(=O)N(c3ccccc3)C(=O)C2c2[nH]c3ccccc3c21` (configuration not stated), for which the GI50 was 24 µM (inactive) in the experiment with DLD-1; 13.9 µM (inactive) in the experiment on DMS-114; > 10 µM (inactive) in the experiment on DMS-273; 14.3 µM (inactive) in the experiment on HOP-18; 20.4 µM (inactive) in the experiment with M19-MEL; 13.3 µM (inactive) in the experiment with RXF 631. For the same molecule, the GI50 with SNB-78 was 26.6 µM (inactive); with XF498, 16.7 µM (inactive).

As to `CS(=O)(=O)OCCCCOS(C)(=O)=O` [BUSULFAN], the GI50 was > 236 µM (inactive) in the experiment with DLD-1; 225 µM (inactive) in the experiment with DMS-114; 191 µM (inactive) with DMS-273; > 200 µM (inactive) with HOP-18; > 234 µM (inactive) in the experiment with KM-20L2; 226 µM (inactive) in the experiment with M19-MEL. Moreover, the GI50 with SNB-78 was 212 µM (inactive).

Turning to `Cc1cc(NS(=O)(=O)c2ccc(NC(=O)c3cccc4c(Nc5ccc(S(=O)(=O)N=C(N)N)cc5)c5ccccc5nc34)cc2)no1`, the GI50 with DLD-1, with DMS-273, in the experiment on KM-20L2, in the experiment with RXF 631 and with SNB-78 was > 100 µM (inactive) in each case.

With `C/C(=N\NC(=S)N(C)C)c1ncc[nH]1`, the GI50 was 2.9 µM (inactive) with DLD-1; 3.13 µM (inactive) in the experiment with DMS-114; 5.37 µM (inactive) in the experiment on HOP-18; 3.57 µM (inactive) in the experiment on KM-20L2; 5.6 µM (inactive) in the experiment with M19-MEL; 4.73 µM (inactive) with XF498.

For `O=[N+]([O-])c1cc(C2SCc3nc4ccccc4n32)ccc1Cl` (configuration not stated), the GI50 in the experiment with DLD-1 was 26.1 µM (inactive); in the experiment with DMS-114, 20.1 µM (inactive); with DMS-273, 24.2 µM (inactive); in the experiment with HOP-18, 76.7 µM (inactive); with M19-MEL it was 22.2 µM (inactive); in the experiment on SNB-78, 23.2 µM (inactive).
